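Where inhibition never reached the appropriate level, the endpoint shown equals the highest concentration tested. Otherwise, values were interpolated linearly from a five-concentration, 48-hour dose response in 96-well plates. Here, GI50 denotes the concentration required for 50% inhibition of growth.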 Activity calls are given as the source filed them. Rule as the data show it: active = GI50 up to about 1.1 µM and inactive = higher.
Legend:
Experiment in all cases: growth of human tumour cells (NCI), 48 h
U-251 = test system: U-251
UO-31 = test system: UO-31
SF-268 = test system: SF-268
MOLT-4 = test system: MOLT-4
NCI-H23 = test system: NCI-H23
K562 = test system: K562
SK-MEL-28 = test system: SK-MEL-28
OVCAR-3 = test system: OVCAR-3
OVCAR-5 = test system: OVCAR-5
COLO 205 = test system: COLO 205
SNB-19 = test system: SNB-19
SNB-75 = test system: SNB-75
KM12 = test system: KM12
EKVX = test system: EKVX
UACC-257 = test system: UACC-257
UACC-62 = test system: UACC-62
HT-29 = test system: HT-29
OVCAR-8 = test system: OVCAR-8
IGROV-1 = test system: IGROV-1
LOX IMVI = test system: LOX IMVI

SMILES	GI50 (U-251)	GI50 (UO-31)	GI50 (SF-268)	GI50 (MOLT-4)	GI50 (NCI-H23)	GI50 (K562)	GI50 (SK-MEL-28)	GI50 (OVCAR-3)	GI50 (OVCAR-5)	GI50 (COLO 205)	GI50 (SNB-19)	GI50 (SNB-75)	GI50 (KM12)	GI50 (EKVX)	GI50 (UACC-257)	GI50 (UACC-62)	GI50 (HT-29)	GI50 (OVCAR-8)	GI50 (IGROV-1)	GI50 (LOX IMVI)
CCOC(=O)c1cc2c([N+](=O)[O-])c(NC(C)=O)ccc2s1	44.6 µM (inactive)	47.3 µM (inactive)	50.7 µM (inactive)	31.4 µM (inactive)	71.9 µM (inactive)	53.6 µM (inactive)	> 100 µM (inactive)	38.4 µM (inactive)	> 100 µM (inactive)	34.8 µM (inactive)	> 100 µM (inactive)	19.3 µM (inactive)	74.8 µM (inactive)	12.6 µM (inactive)	> 100 µM (inactive)	66.7 µM (inactive)	89.7 µM (inactive)	> 100 µM (inactive)	72.9 µM (inactive)	60.4 µM (inactive)
CC1CC(NC2CCCCC2)=Nc2ccccc2N1Cc1ccccc1 (stereo not given)	7.16 µM (inactive)	4.66 µM (inactive)	4.06 µM (inactive)	3.55 µM (inactive)	7.33 µM (inactive)	1.73 µM (inactive)	4.38 µM (inactive)	6.92 µM (inactive)	5.09 µM (inactive)	4.35 µM (inactive)	11.3 µM (inactive)	0.417 µM (active)	4.75 µM (inactive)	8.22 µM (inactive)	3.45 µM (inactive)	1.79 µM (inactive)	2.82 µM (inactive)	6.59 µM (inactive)	1.91 µM (inactive)	2.11 µM (inactive)
O=C1/C(=C/c2ccccc2)NC(=S)N1CN1CCOCC1	> 100 µM (inactive)	> 100 µM (inactive)	> 100 µM (inactive)	> 100 µM (inactive)	> 100 µM (inactive)	> 100 µM (inactive)	> 100 µM (inactive)	> 100 µM (inactive)	> 100 µM (inactive)	> 100 µM (inactive)	> 100 µM (inactive)	> 100 µM (inactive)	> 100 µM (inactive)	> 100 µM (inactive)	> 100 µM (inactive)	> 100 µM (inactive)	> 100 µM (inactive)	> 100 µM (inactive)	> 100 µM (inactive)	> 100 µM (inactive)
O=NN(CCCl)C(=O)N[C@H]1CC[C@H](C(=O)O)CC1	35.8 µM (inactive)	> 100 µM (inactive)	29.7 µM (inactive)	5.32 µM (inactive)	> 100 µM (inactive)	> 100 µM (inactive)	> 100 µM (inactive)	> 100 µM (inactive)	> 100 µM (inactive)	> 100 µM (inactive)	> 61.1 µM (inactive)	> 80.2 µM (inactive)	> 100 µM (inactive)	> 100 µM (inactive)	> 100 µM (inactive)	20.2 µM (inactive)	> 100 µM (inactive)	> 100 µM (inactive)	> 100 µM (inactive)	> 72.6 µM (inactive)
Cc1nc2cccc(F)c2c(=O)n1C1CCCCNC1=O (stereo not given)	> 10 µM (inactive)	> 10 µM (inactive)	> 10 µM (inactive)	> 10 µM (inactive)	> 10 µM (inactive)	> 10 µM (inactive)	> 10 µM (inactive)	> 10 µM (inactive)	> 10 µM (inactive)	> 10 µM (inactive)	> 10 µM (inactive)	> 10 µM (inactive)	> 10 µM (inactive)	> 10 µM (inactive)	> 10 µM (inactive)	> 10 µM (inactive)	> 10 µM (inactive)	> 10 µM (inactive)	> 10 µM (inactive)	> 10 µM (inactive)
C=C1CC(OC)(C(O)C(=O)N[C@H]2OCO[C@H]3C2O[C@H](C[C@@H](COC)OC)C(C)(C)C3OC)O[C@H](C)[C@@H]1C (stereo not given in full)	< 0.00482 µM (active)	< 0.00482 µM (active)	< 0.00482 µM (active)	< 0.00482 µM (active)	< 0.00482 µM (active)	< 0.00482 µM (active)	< 0.00482 µM (active)	< 0.00482 µM (active)	< 0.00482 µM (active)	< 0.00482 µM (active)	< 0.00482 µM (active)	< 0.00482 µM (active)	< 0.00482 µM (active)	< 0.00482 µM (active)	< 0.00482 µM (active)	< 0.00482 µM (active)	< 0.00482 µM (active)	< 0.00482 µM (active)	< 0.00482 µM (active)	< 0.00482 µM (active)
C=C1C(=O)C[C@@]23CCC[C@@]12CC(OCOC)C3 (stereo not given in full)	8.47 µM (inactive)	5.46 µM (inactive)	4.56 µM (inactive)	2.5 µM (inactive)	3.43 µM (inactive)	3.12 µM (inactive)	2.69 µM (inactive)	2.72 µM (inactive)	3.61 µM (inactive)	3.8 µM (inactive)	14.6 µM (inactive)	2.1 µM (inactive)	3.08 µM (inactive)	6.46 µM (inactive)	2.5 µM (inactive)	2.61 µM (inactive)	1.99 µM (inactive)	3.09 µM (inactive)	1.85 µM (inactive)	1.61 µM (inactive)
NC(=O)c1ncn2c1NC(=O)CC2	> 100 µM (inactive)	> 100 µM (inactive)	> 100 µM (inactive)	> 100 µM (inactive)	> 100 µM (inactive)	> 100 µM (inactive)	> 100 µM (inactive)	> 100 µM (inactive)	> 100 µM (inactive)	> 100 µM (inactive)	> 100 µM (inactive)	> 100 µM (inactive)	> 100 µM (inactive)	> 100 µM (inactive)	> 100 µM (inactive)	> 67.8 µM (inactive)	> 100 µM (inactive)	> 100 µM (inactive)	> 100 µM (inactive)	> 100 µM (inactive)
NC(=O)c1csc(C2O[C@@H](COP(=O)(O)OP(=O)(O)OC[C@H]3OC(n4cnc5c(N)ncnc54)[C@H](O)[C@@H]3O)[C@H](O)[C@@H]2O)n1 (stereo not given in full)	45.8 µM (inactive)	> 100 µM (inactive)	64 µM (inactive)	59.2 µM (inactive)	> 100 µM (inactive)	23.6 µM (inactive)	30 µM (inactive)	> 100 µM (inactive)	> 100 µM (inactive)	> 100 µM (inactive)	> 100 µM (inactive)	45 µM (inactive)	88.1 µM (inactive)	> 100 µM (inactive)	66.8 µM (inactive)	72.1 µM (inactive)	87.5 µM (inactive)	73.8 µM (inactive)	> 100 µM (inactive)	54.5 µM (inactive)
